Literature values as cited in US20230071934A1, “NOVEL USES” (Intra-Cellular Therapies, Inc., priority 2019, published 2023).

Target: T1, sEH (Homo sapiens, UniProt P34913)
T1 sequence (P34913 1-555): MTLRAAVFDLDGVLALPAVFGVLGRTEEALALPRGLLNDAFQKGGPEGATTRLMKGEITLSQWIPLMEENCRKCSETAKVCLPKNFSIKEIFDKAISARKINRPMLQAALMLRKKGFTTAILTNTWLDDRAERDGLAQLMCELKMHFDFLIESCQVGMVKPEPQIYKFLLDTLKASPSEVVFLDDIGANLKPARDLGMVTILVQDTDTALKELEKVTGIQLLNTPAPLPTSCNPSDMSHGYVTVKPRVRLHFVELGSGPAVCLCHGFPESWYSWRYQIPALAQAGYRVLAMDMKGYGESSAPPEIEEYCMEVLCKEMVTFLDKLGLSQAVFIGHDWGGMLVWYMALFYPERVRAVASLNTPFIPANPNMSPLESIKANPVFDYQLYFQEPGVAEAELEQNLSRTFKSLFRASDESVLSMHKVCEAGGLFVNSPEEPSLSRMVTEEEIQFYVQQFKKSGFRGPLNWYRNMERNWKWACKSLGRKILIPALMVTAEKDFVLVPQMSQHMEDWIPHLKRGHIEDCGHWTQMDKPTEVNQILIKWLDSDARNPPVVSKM

activity as an inhibitor of sEH: particularly high activity
Compound: CCCCCCCCCCCCNC(=O)NC12CC3CC(CC(C3)C1)C2 [ADU, N-Adamantyl-N′-dodecyl urea]
